Experimental data as given in patent US9481676B2, “Azepino[4,5-B]indoles and methods of use” (Medivation Technologies, Inc., priority 2008, dated 2016).

Molecular target: T1, human recombinant adrenergic α2B receptor (Homo sapiens, UniProt P18089)
T1 construct: expressed in transfected cells; host or cells: CHO-K1 cells
T1 sequence (P18089 1-450): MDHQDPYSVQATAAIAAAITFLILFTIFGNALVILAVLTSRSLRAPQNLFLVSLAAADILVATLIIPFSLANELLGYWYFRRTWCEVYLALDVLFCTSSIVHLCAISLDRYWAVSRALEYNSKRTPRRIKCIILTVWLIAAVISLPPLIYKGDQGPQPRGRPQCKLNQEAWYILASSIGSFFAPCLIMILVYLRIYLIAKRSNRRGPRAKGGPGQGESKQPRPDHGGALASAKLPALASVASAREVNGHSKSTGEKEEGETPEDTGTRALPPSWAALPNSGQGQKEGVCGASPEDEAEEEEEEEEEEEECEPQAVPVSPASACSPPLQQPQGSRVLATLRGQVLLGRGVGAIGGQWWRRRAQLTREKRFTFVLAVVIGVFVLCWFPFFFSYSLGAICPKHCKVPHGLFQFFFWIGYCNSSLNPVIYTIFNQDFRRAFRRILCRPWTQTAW
Assay: Adrenergic alpha2B radioligand binding ([3H]Rauwolscine)
Settings: compound at 1 μM; read-out: Adrenergic (1 μM) α2B, percent inhibition of specific binding
Summary of the method: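 CHO-K1-expressed receptor in Tris-HCl pH 7.4 with MgCl2, EDTA, BSA, incubated 60 min at 25° C with 2.5 nM [3H]Rauwolscine; 10 μM prazosin defines non-specific binding.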

Compared with `CN1CCc2c(n(CCc3ccc(C(F)(F)F)nc3)c3ccc(Cl)cc23)CC1` [Compound No. 1, 9-chloro-6-(2-(6-(trifluoromethyl)pyridin-3-yl)ethyl)-1,2,3,4,5,6-hexahydro-3-methylazepino[4,5-b]indole], `Cc1cncc(CCn2c3c(c4cc(Cl)ccc42)CCN(C)CC3)c1` [Compound No. 3, 9-chloro-3-methyl-6-(2-(5-methylpyridin-3-yl)ethyl)-1,2,3,4,5,6-hexahydroazepino[4,5-b]indole] is higher in inhibition at 1 µM: 107% for the first, 112% for the second.

Going from `C/C(=C\n1c2c(c3cc(Cl)ccc31)CCN(C)CC2)c1ccc(F)cc1` [Compound No. 2, 9-chloro-6-((E)-2-(4-fluorophenyl)prop-1-enyl)-1,2,3,4,5,6-hexahydro-3-methylazepino[4,5-b]indole] to `C=C(Cn1c2c(c3cc(Cl)ccc31)CCN(C)CC2)c1ccc(F)cc1` [Compound No. 82, 9-chloro-6-(2-(4-fluorophenyl)allyl)-3-methyl-1,2,3,4,5,6-hexahydroazepino[4,5-b]indole], the inhibition at 1 µM falls from 111% to 91%.

Going from `CC1CCN(C(=O)Cn2c3c(c4cc(Cl)ccc42)CCN(C)CC3)CC1` [Compound No. 76, 2-(9-chloro-2,3,4,5-tetrahydro-3-methylazepino[4,5-b]indol-6(1H)-yl)-1-(4-methylpiperidin-1-yl)ethanone] to `Cc1ccc2c(c1)c1c(n2CC(=O)N2CCC(C)CC2)CCN(C)CC1` [Compound No. 225, 2-(3,9-dimethyl-2,3,4,5-tetrahydroazepino[4,5-b]indol-6(1H)-yl)-1-(4-methylpiperidin-1-yl)ethanone], the inhibition at 1 µM falls from 31% to 13%.

First: COc1ccc(C(O)Cn2c3c(c4cc(Cl)ccc42)CCN(C)CC3)cc1OC (stereo not drawn) [Compound No. 77, 2-(9-chloro-2,3,4,5-tetrahydro-3-methylazepino[4,5-b]indol-6(1H)-yl)-1-(3,4-dimethoxyphenyl)ethanol]
Second: COc1ccc(C(O)Cn2c3c(c4cc(C)ccc42)CCN(C)CC3)cc1OC (stereo not drawn) [Compound No. 227, 1-(3,4-dimethoxyphenyl)-2-(3,9-dimethyl-2,3,4,5-tetrahydroazepino[4,5-b]indol-6(1H)-yl)ethanol]
The inhibition at 1 µM of the first is higher: 113% for the first, 98% for the second.

Compared with `COc1ccc(/C=C/n2c3c(c4cc(Cl)ccc42)CCN(C)CC3)cc1` [Compound No. 78, 6-(4-methoxystyryl)-9-chloro-1,2,3,4,5,6-hexahydro-3-methylazepino[4,5-b]indole], `COc1ccc(/C=C/n2c3c(c4cc(Cl)ccc42)CCN(C)CC3)cc1F` [Compound No. 158, (E)-6-(3-fluoro-4-methoxystyryl)-9-chloro-1,2,3,4,5,6-hexahydro-3-methylazepino[4,5-b]indole] is lower in inhibition at 1 µM: 111% for the first, 109% for the second.

First: Cc1ccc2c(c1)c1c(n2CC(=O)Nc2ccccc2)CCN(C)CC1 [Compound No. 79, 2-(2,3,4,5-tetrahydro-3,9-dimethylazepino[4,5-b]indol-6(1H)-yl)-N-phenylacetamide]
Second: CN1CCc2c(n(/C=C/c3ccccc3)c3ccc(Cl)cc23)CC1 [Compound No. 228, (E)-9-chloro-3-methyl-6-styryl-1,2,3,4,5,6-hexahydroazepino[4,5-b]indole]
The inhibition at 1 µM of the first is lower: 20% for the first, 110% for the second.

Compared with `CN1CCc2c(n(/C=C/c3ccccc3F)c3ccc(Cl)cc23)CC1` [Compound No. 83, (E)-9-chloro-6-(2-fluorostyryl)-3-methyl-1,2,3,4,5,6-hexahydro azepino[4,5-b]indole], `COc1ccc(/C=C/n2c3c(c4cc(Cl)ccc42)CCN(C)CC3)cc1OC` [Compound No. 226, (E)-9-chloro-6-(3,4-dimethoxystyryl)-3-methyl-1,2,3,4,5,6-hexahydroazepino[4,5-b]indole] is lower in inhibition at 1 µM: 113% for the first, 102% for the second.

First: C/C(=C/n1c2c(c3cc(Cl)ccc31)CCN(C)CC2)c1ccc(Cl)cc1Cl [Compound No. 152, (Z)-9-chloro-6-(2-(2,4-dichlorophenyl)prop-1-enyl)-1,2,3,4,5,6-hexahydro-3-methylazepino[4,5-b]indole]
Second: C/C(=C/n1c2c(c3cc(C)ccc31)CCN(C)CC2)c1ccc(Cl)cc1Cl [Compound No. 174, (Z)-6-(2-(2,4-dichlorophenyl)prop-1-enyl)-1,2,3,4,5,6-hexahydro-3,9-dimethylazepino[4,5-b]indole]
The inhibition at 1 µM of the first is lower: 88% for the first, 105% for the second.

First: COc1ccc(/C=C/n2c3c(c4cc(C)ccc42)CCN(C)CC3)cc1F [Compound No. 180, (E)-6-(3-fluoro-4-methoxystyryl)-1,2,3,4,5,6-hexahydro-3,9-dimethylazepino[4,5-b]indole]
Second: Cc1ccc2c(c1)c1c(n2CC(=O)N2CCNCC2)CCN(C)CC1 [Compound No. 224, 2-(3,9-dimethyl-2,3,4,5-tetrahydroazepino[4,5-b]indol-6(1H)-yl)-1-(piperazin-1-yl)ethanone]
The inhibition at 1 µM of the first is higher: 103% for the first, -6% for the second.
